# Laboratory results published in patent publication US9303045B2, “5-HT3 receptor antagonists” (Takeda Pharmaceutical Company Limited, priority 2013, dated 2016).
# Counter-ions that a name gives are not always drawn.
# Target: 5HT3a receptor expressed in HEK-293T cells (Homo sapiens (Human), UniProt P46098)
# Test: Inhibition of Ca flux activity of 5HT3 in vitro assay
# Type: cell-based
# Settings: calcium flux, 5HT 216 nM, approximate values
# Procedure: Inhibition of Ca Flux Activity of 5HT3 In Vitro Assay
# The 5HT3 antagonist activity of the compounds of the invention was determined by measuring the ability of the compounds to inhibit the calcium flux activity of […] receptor expressed in HEK-293T cells. HEK-293T cells were transfected with the 5HT3a expression construct using Xtreme Gene 9 (Roche) in 150 mm tissue culture treated plates and incubated for 24 hours at 37° C. Cells were then split and plated at a density of 60K cells/well in poly-lysine coated, black 96-well plates with clear bottoms (BD BioSciences) and incubated overnight at 37° C. Growth media was removed and cells loaded with 200 uL calcium indicator dye in HBSS containing 20 mM HEPES (Calcium 5 Assay kit, Molecular Devices) and incubated at 37° C. for 1 hour. While cells were incubating, the 10× antagonist and agonist/antagonist addition plates were made. For 10× antagonist plate: half log serial dilutions (final concentrations range from 10^−7 through 10^−10 with the bottom well a negative, no ligand control) were made from test compounds in DMSO at a 1000× concentration and then diluted to 10× in HBSS/20 mM HEPES. For addition plate: 5HT was diluted to 100× in HBSS/20 mM HEPES (final concentration in the assay—216 nM) and 15 uL was added to each well of the addition plate, 15 uL of 10× compound was also added to the addition plate, and finally 120 uL of HBSS/20 mM HEPES (for a total of 150 uL). Cells were then removed from the incubator and equilibrated to room temperature for 10 minutes, then 22.5 uL of 10× test compounds were added in triplicate to the plates and incubated at room temperature for 10 minutes (Tropisetron was used as a positive control in every assay). Test plate and addition plate were loaded into the FlexStation III (Molecular Devices), and using the fluidics, 22.5 uL compound additions were made (at t=˜17 seconds), and fluorescence was measured for 90 seconds, reading every 2.2 seconds. Data sets were analyzed as max minus min using Software Max Pro (Molecular Devices). IC50 curves were generated using non-linear regression in GraphPad Prism.
# Chain of 5HT3a receptor expressed in HEK-293T cells (P46098 24-478): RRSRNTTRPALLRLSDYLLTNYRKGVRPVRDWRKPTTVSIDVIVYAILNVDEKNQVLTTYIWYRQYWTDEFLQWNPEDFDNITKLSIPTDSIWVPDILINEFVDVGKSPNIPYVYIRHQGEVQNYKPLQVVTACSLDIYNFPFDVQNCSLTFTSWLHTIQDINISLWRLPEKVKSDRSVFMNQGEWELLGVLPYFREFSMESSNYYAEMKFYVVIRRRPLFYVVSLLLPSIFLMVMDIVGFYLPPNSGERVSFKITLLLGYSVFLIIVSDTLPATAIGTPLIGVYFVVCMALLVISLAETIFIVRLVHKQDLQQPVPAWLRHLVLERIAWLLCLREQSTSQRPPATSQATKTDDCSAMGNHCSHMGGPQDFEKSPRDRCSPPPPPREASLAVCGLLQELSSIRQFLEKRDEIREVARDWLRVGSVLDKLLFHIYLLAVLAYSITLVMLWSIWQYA
row,Compound,IC50 [nM]
1,"CN1[C@@H]2COC[C@H]1CC(NC(=O)c1nn(CC(F)(F)F)c3ccccc13)C2 (stereo partly drawn) [Example 126, N-((1R,5S,7S)-9-methyl-d3-3-oxa-9-azabicyclo[3.3.1]nonan-7-yl)-1-(2,2,2-trifluoroethyl)-1H-indazole-3-carboxamide, 2,2,2-trifluoroacetate]",0.86
2,"CC(C)S(=O)(=O)n1cc(C(=O)NC2C[C@H]3COC[C@@H](C2)N3C)c2ccccc21 (stereo partly drawn) [Example 111, N-((1R,5S,7S)-9-methyl-d3-3-oxa-9-azabicyclo[3.3.1]nonan-7-yl)-1-(isopropylsulfonyl)-1H-indole-3-carboxamide, 2,2,2-trifluoroacetate]",0.77
3,"CN1[C@@H]2COC[C@H]1CC(NC(=O)c1cn(-c3ccnnc3)c3ccccc13)C2 (stereo partly drawn) [Example 190, N-((1R,5S,7S)-9-methyl-3-oxa-9-azabicyclo[3.3.1]nonan-7-yl)-1-(pyridazin-4-yl)-1H-indole-3-carboxamide]",0.75
4,"CN1[C@@H]2COC[C@H]1CC(NC(=O)c1cn(-c3cccnn3)c3ccccc13)C2 (stereo partly drawn) [Example 123, N-((1R,5S,7S)-9-methyl-d3-3-oxa-9-azabicyclo[3.3.1]nonan-7-yl)-1-(pyridazin-3-yl)-1H-indole-3-carboxamide, 2,2,2-trifluoroacetate]",0.28
5,"(1R,5S,7S)-9-methyl-3-oxa-9-azabicyclo[3.3.1]nonan-7-yl 1-(isothiazol-3-yl)-1H-indole-3-carboxylate, 2,2,2-trifluoroacetic acid salt [Example 34]",0.74
6,"CN1[C@@H]2COC[C@H]1C[C@@H](OC(=O)c1cn(CC(F)F)c3ncccc13)C2 [Example 48, (1R,5S,7S)-9-methyl-3-oxa-9-azabicyclo[3.3.1]nonan-7-yl 1-(2,2-difluoroethyl)-1H-pyrrolo[2,3-b]pyridine-3-carboxylate]",0.84
7,"CN1[C@@H]2COC[C@H]1C[C@@H](NC(=O)c1cn(-c3cnsc3)c3ccccc13)C2 [Example 144, 1-(isothiazol-4-yl)-N-((1R,5S,7s)-9-methyl-3-oxa-9-azabicyclo[3.3.1]nonan-7-yl)-1H-indole-3-carboxamide, 2,2,2-trifluoroacetic acid salt]",0.61
8,"CS(=O)(=O)n1cc(C(=O)O[C@H]2C[C@H]3COC[C@@H](C2)N3)c2cc(F)ccc21 [Example 132, (1R,5S,7S)-3-oxa-9-azabicyclo[3.3.1]nonan-7-yl 5-fluoro-1-(methylsulfonyl)-1H-indole-3-carboxylate, 2,2,2-trifluoroacetate]",2.3
9,"CN1[C@@H]2CC[C@H]1CC(OC(=O)c1c(Cl)n(CC(F)F)c3ccccc13)C2 (stereo partly drawn) [Example 43, (1R,3R,5S)-8-methyl-8-azabicyclo[3.2.1]octan-3-yl 2-chloro-1-(2,2-difluoroethyl)-1H-indole-3-carboxylate, 2,2,2-trifluoroacetate]",1.02
10,"O=C(NC1C[C@H]2COC[C@@H](C1)N2)c1cn(CC(F)F)c2ncc(F)cc12 (stereo partly drawn) [Example 39, N-((1R,5S,7S)-3-oxa-9-azabicyclo[3.3.1]nonan-7-yl)-1-(2,2-difluoroethyl)-5-fluoro-1H-pyrrolo[2,3-b]pyridine-3-carboxamide, 2,2,2-trifluoroacetate]",24.1
11,"CN1[C@@H]2COC[C@H]1CC(NC(=O)c1cn(CC(F)F)c3ccc(F)cc13)C2 (stereo partly drawn) [Example 113, 1-(2,2-difluoroethyl)-5-fluoro-N-((1R,5S,7S)-9-methyl-d3-3-oxa-9-azabicyclo[3.3.1]nonan-7-yl)-1H-indole-3-carboxamide, 2,2,2-trifluoroacetate]",0.23
12,"CN1C2COCC1CC(NC(=O)c1cn(-c3ccns3)c3ccccc13)C2 [Example 158, 1-(isothiazol-5-yl)-N-((1R,5S,7s)-9-methyl-3-oxa-9-azabicyclo[3.3.1]nonan-7-yl)-1H-indole-3-carboxamide, 2,2,2-trifluoroacetic acid salt]",1.36
13,"CS(=O)(=O)n1cc(C(=O)OC23CCN(CC2)CC3)c2cc(F)ccc21 [Example 37, quinuclidin-4-yl 5-fluoro-1-(methylsulfonyl)-1H-indole-3-carboxylate, 2,2,2-trifluoroacetate]",> 1000
14,"CN1[C@@H]2CC[C@H]1CC(OC(=O)c1cn(S(C)(=O)=O)c3ccc(F)cc13)C2 (stereo partly drawn) [Example 86, (1R,3R,5S)-8-methyl-8-azabicyclo[3.2.1]octan-3-yl 5-fluoro-1-(methylsulfonyl)-1H-indole-3-carboxylate, 2,2,2-trifluoroacetate]",2.48
15,"CN1[C@@H]2CCC[C@H]1CC(OC(=O)c1cn(CC(F)(F)F)c3ncccc13)C2 (stereo partly drawn) [Example 103, (1R,3R,5S)-9-methyl-9-azabicyclo[3.3.1]nonan-3-yl 1-(2,2,2-trifluoroethyl)-1H-pyrrolo[2,3-b]pyridine-3-carboxylate, 2,2,2-trifluoroacetate]",8.2
16,"(1R,5S,7S)-3-Oxa-9-azabicyclo[3.3.1]nonan-7-yl 1-(2,2-difluoroethyl)-5-fluoro-1H-indole-3-carboxylate 2,2,2-trifluoroacetic acid [Example 13]",0.93
17,"CN1[C@@H]2CC[C@H]1CC(OC(=O)c1cn([C@@H]3CCOC3)c3ccccc13)C2 (stereo partly drawn) [Example 83, (1R,3R,5S)-8-methyl-8-azabicyclo[3.2.1]octan-3-yl 1-((R)-tetrahydrofuran-3-yl)-1H-indole-3-carboxylate, 2,2,2-trifluoroacetate]",1.04
18,"CC(C)S(=O)(=O)n1cc(C(=O)NC2CC3COCC(C2)N3C)c2cc(F)ccc21 [Example 93, 5-fluoro-1-(isopropylsulfonyl)-N-((1R,5S,7S)-9-methyl-3-oxa-9-azabicyclo[3.3.1]nonan-7-yl)-1H-indole-3-carboxamide, 2,2,2-trifluoroacetate]",1.39
19,"CN1[C@@H]2COC[C@H]1CC(OC(=O)c1cn(S(C)(=O)=O)c3ccc(F)cc13)C2 (stereo partly drawn) [Example 99, (1R,5S,7S)-9-methyl-3-oxa-9-azabicyclo[3.3.1]nonan-7-yl 5-fluoro-1-(methylsulfonyl)-1H-indole-3-carboxylate, 2,2,2-trifluoroacetate]",0.29
20,"CN1[C@@H]2CC[C@H]1CC(OC(=O)c1c3n(c4ccccc14)CCCO3)C2 (stereo partly drawn) [Example 85, (1R,3R,5S)-8-methyl-8-azabicyclo[3.2.1]octan-3-yl 3,4-dihydro-2H-[1,3]oxazino[3,2-a]indole-10-carboxylate, 2,2,2-trifluoroacetate]",1.04
21,"CN(C(=O)c1cn(-c2cnsc2)c2ccccc12)[C@H]1C[C@H]2COC[C@@H](C1)N2 [Example 185, N-((1R,5S,7S)-3-oxa-9-azabicyclo[3.3.1]nonan-7-yl)-1-(isothiazol-4-yl)-N-methyl-1H-indole-3-carboxamide]",3.06
22,"CN1[C@@H]2CC[C@H]1CC(OC(=O)c1c(Cl)n(CC(F)(F)F)c3ccccc13)C2 (stereo partly drawn) [Example 44, (1R,3R,5S)-8-methyl-8-azabicyclo[3.2.1]octan-3-yl 2-chloro-1-(2,2,2-trifluoroethyl)-1H-indole-3-carboxylate, 2,2,2-trifluoroacetate]",1.87
23,"CN1[C@@H]2CC[C@H]1CC(OC(=O)c1c3n(c4ccccc14)CCCCO3)C2 (stereo partly drawn) [Example 84, (1R,3R,5S)-8-methyl-8-azabicyclo[3.2.1]octan-3-yl 2,3,4,5-tetrahydro-[1,3]oxazepino[3,2-a]indole-11-carboxylate, 2,2,2-trifluoroacetate]",1.64
24,"O=C(NC1CC2COCC(C1)N2C(F)(F)F)c1cn(CC(F)F)c2ncccc12 [Example 104, 1-(2,2-difluoroethyl)-N-((1R,5S,7S)-9-(trifluoromethyl)-3-oxa-9-azabicyclo[3.3.1]nonan-7-yl)-1H-pyrrolo[2,3-b]pyridine-3-carboxamide, 2,2,2-trifluoroacetate]",> 1000
25,"(1R,5S,7s)-9-methyl-3-oxa-9-azabicyclo[3.3.1]nonan-7-yl 1-(6-fluoropyridazin-3-yl)-1H-indole-3-carboxylate [Example 25]",3.88
26,"CS(=O)(=O)n1cc(C(=O)NC2C[C@H]3COC[C@@H](C2)N3)c2cc(F)ccc21 (stereo partly drawn) [Example 78, N-((1R,5S,7S)-3-oxa-9-azabicyclo[3.3.1]nonan-7-yl)-5-fluoro-1-(methylsulfonyl)-1H-indole-3-carboxamide, 2,2,2-trifluoroacetate]",4.81
27,"CN1C2COCC1CC(NC(=O)c1cn(-c3cncs3)c3ncc(F)cc13)C2 [Example 164, 5-fluoro-N-((1R,5S,7s)-9-methyl-3-oxa-9-azabicyclo[3.3.1]nonan-7-yl)-1-(thiazol-5-yl)-1H-pyrrolo[2,3-b]pyridine-3-carboxamide, 2,2,2-trifluoroacetic acid salt]",1.18
28,"CN1C2CCC1CC(OC(=O)c1cn([C@H]3CCOC3)c3ccccc13)C2 (stereo partly drawn) [Example 96, (1R,3R,5S)-8-methyl-8-azabicyclo[3.2.1]octan-3-yl 1-((S)-tetrahydrofuran-3-yl)-1H-indole-3-carboxylate, 2,2,2-trifluoroacetate]",0.83
